Values of other authors, collected in patent US8062666B2 (priority 2001, dated 2011).
Where two headings read alike, the source gives them in different places.

Legend:
[1] = 0.2 M sodium chloride
[2] = coated spheroid extended release dosage form of WO 99/22724, dissolution specification

COc1ccc(C(CN(C)C)C2(O)CCCCC2)cc1.Cl (racemic) [Venlafaxine hydrochloride, (R/S)-1-[2-(dimethylamino)-1-(4-methoxyphenyl)-ethyl]cyclohexanol hydrochloride]
octanol:water partition coefficient [1]: 0.43 | time at which peak blood plasma levels appeared (conventional release dosage forms (tablets)): 2 to 4 h | time for which plasma levels rose after administration (time to peak) (extended release dosage forms): five to eight | Average % venlafaxine HCL release ([2]; 2 hrs): <30% | Average % venlafaxine HCL release ([2]; 4 hrs): 30-55% | Average % venlafaxine HCL release ([2]; 8 hrs): 55-80% | Average % venlafaxine HCL release ([2]; 12 hrs): 65-90% | Average % venlafaxine HCL release ([2]; 24 hrs): >80%
